Assay results from ChEMBL document CHEMBL1833893, “Synthesis and anticonvulsant activity of new 1-[2-oxo-2-(4-phenylpiperazin-1-yl)ethyl]pyrrolidine-2,5-diones” (Bioorg Med Chem Lett, 2011).
Activity calls are given as the source filed them. The rule behind the calls is not given here.

Tests used:
Mus musculus [1] = test: Anticonvulsant activity in albino CF1 mouse assessed as protection against subcutaneous pentylenetetrazole-induced seizures at 300 mg/kg, ip after 0.5 hrs; assay type: functional, organism-based; design: dose 300 mg/kg
Mus musculus [2] = test: Anticonvulsant activity in albino CF1 mouse assessed as protection against subcutaneous pentylenetetrazole-induced seizures at 300 mg/kg, ip after 4 hrs; assay type: functional, organism-based; design: dose 300 mg/kg
Mus musculus [3] = test: Anticonvulsant activity in ip dosed albino CF1 mouse assessed as protection against maximal electroshock-induced seizures after 0.5 hrs; assay type: functional; conditions: read-out: MED
Mus musculus [4] = test: Anticonvulsant activity in ip dosed albino CF1 mouse assessed as protection against maximal electroshock-induced seizures after 4 hrs; assay type: functional; conditions: read-out: MED
Mus musculus [5] = test: Neurotoxicity in albino CF1 mouse assessed as motor impairment at 300 mg/kg, ip after 0.5 hrs by rotarod test; assay type: toxicity, organism-based; design: dose 300 mg/kg, route intraperitoneal; conditions: in vivo
Mus musculus [6] = test: Neurotoxicity in albino CF1 mouse assessed as motor impairment at 300 mg/kg, ip after 4 hrs by rotarod test; assay type: toxicity, organism-based; design: dose 300 mg/kg, route intraperitoneal; conditions: in vivo
Mus musculus [7] = test: Anticonvulsant activity in albino CF1 mouse assessed as protection against electrically-induced seizure at 100 mg/kg, ip after 4 hrs by 6Hz psychomotor seizure test; assay type: functional
Mus musculus [8] = test: Anticonvulsant activity in albino CF1 mouse assessed as protection against electrically-induced seizure at 100 mg/kg, ip after 1 hr by 6Hz psychomotor seizure test; assay type: functional
Rattus norvegicus [9] = test: Anticonvulsant activity in Sprague-Dawley rat assessed as protection against maximal electroshock-induced seizures at 30 mg/kg, po after 0.25 hrs; assay type: functional
Mus musculus [10] = test: Neurotoxicity in ip dosed albino CF1 mouse assessed as minimum dose required to cause motor impairment after 4 hrs by rotarod test; assay type: toxicity, organism-based; conditions: in vivo
Mus musculus [11] = test: Anticonvulsant activity in ip dosed albino CF1 mouse assessed as protection against subcutaneous pentylenetetrazole-induced seizures after 0.5 hrs; assay type: functional; conditions: albino CF1, 0.5 h, read-out: MED
Mus musculus [12] = test: Anticonvulsant activity in albino CF1 mouse assessed as protection against electrically-induced seizure at 100 mg/kg, ip after 2 hrs by 6Hz psychomotor seizure test; assay type: functional
Rattus norvegicus [13] = test: Anticonvulsant activity in Sprague-Dawley rat assessed as protection against maximal electroshock-induced seizures at 30 mg/kg, po after 1 hr; assay type: functional
Mus musculus [14] = test: Anticonvulsant activity in albino CF1 mouse assessed as protection against electrically-induced seizure at 100 mg/kg, ip after 0.5 hrs by 6Hz psychomotor seizure test; assay type: functional
Rattus norvegicus [15] = test: Anticonvulsant activity in Sprague-Dawley rat assessed as protection against maximal electroshock-induced seizures at 30 mg/kg, po after 0.5 hrs; assay type: functional
Mus musculus [16] = test: Anticonvulsant activity in albino CF1 mouse assessed as protection against electrically-induced seizure at 100 mg/kg, ip after 0.25 hrs by 6Hz psychomotor seizure test; assay type: functional
Rattus norvegicus [17] = test: Anticonvulsant activity in Sprague-Dawley rat assessed as protection against maximal electroshock-induced seizures at 30 mg/kg, po after 2 hrs; assay type: functional
Rattus norvegicus [18] = test: Anticonvulsant activity in Sprague-Dawley rat assessed as protection against maximal electroshock-induced seizures at 30 mg/kg, po after 4 hrs; assay type: functional
Mus musculus [19] = test: Neurotoxicity in ip dosed albino CF1 mouse assessed as minimum dose required to cause motor impairment after 0.5 hrs by rotarod test; assay type: toxicity, organism-based; conditions: in vivo
Mus musculus [20] = test: Anticonvulsant activity in albino CF1 mouse assessed as protection against maximal electroshock-induced seizures at 300 mg/kg, ip after 0.5 hrs; assay type: functional, organism-based; design: dose 300 mg/kg
Mus musculus [21] = test: Anticonvulsant activity in albino CF1 mouse assessed as protection against maximal electroshock-induced seizures at 300 mg/kg, ip after 4 hrs; assay type: functional, organism-based; design: dose 300 mg/kg

Compound: O=C(CN1C(=O)CCC1=O)N1CCN(c2ccc(F)cc2)CC1
- Activity (Mus musculus [1]): inactive
- Activity (Mus musculus [2]): inactive
- minimal effective dose (Mus musculus [3]): 300 mg/kg
- minimal effective dose (Mus musculus [4]): 300 mg/kg
- Activity (Mus musculus [5]): Non-toxic
- Activity (Mus musculus [6]): Non-toxic

Compound: O=C(CN1C(=O)CCC1=O)N1CCN(c2ccc(Cl)cc2)CC1
- Activity (Mus musculus [7]): inactive
- Activity (Mus musculus [8]): inactive
- Activity (Mus musculus [2]): inactive
- Activity (Rattus norvegicus [9]): inactive
- minimal effective dose (Mus musculus [3]): 100 mg/kg
- MTC (Mus musculus [10]): 300 mg/kg
- minimal effective dose (Mus musculus [11]): 300 mg/kg
- Activity (Mus musculus [12]): inactive
- Activity (Rattus norvegicus [13]): inactive
- minimal effective dose (Mus musculus [4]): 300 mg/kg
- Activity (Mus musculus [14]): inactive
- Activity (Mus musculus [5]): Non-toxic
- Activity (Rattus norvegicus [15]): inactive
- Activity (Mus musculus [16]): inactive

Compound: CC1(C)CC(=O)N(CC(=O)N2CCN(c3ccc(F)cc3)CC2)C1=O
- Activity (Rattus norvegicus [17]): inactive
- Activity (Mus musculus [8]; route intraperitoneal): 75%
- Activity (Rattus norvegicus [18]): inactive
- MTC (Mus musculus [19]): 300 mg/kg
- Activity (Mus musculus [2]): inactive
- Activity (Rattus norvegicus [9]): inactive
- minimal effective dose (Mus musculus [3]): 100 mg/kg
- minimal effective dose (Mus musculus [11]): 300 mg/kg
- Activity (Rattus norvegicus [13]): inactive
- minimal effective dose (Mus musculus [4]): 100 mg/kg
- Activity (Mus musculus [14]; route intraperitoneal): 100%
- Activity (Rattus norvegicus [15]): inactive
- Activity (Mus musculus [16]; route intraperitoneal): 100%
- Activity (Mus musculus [6]): Non-toxic

Compound: CC1CC(=O)N(CC(=O)N2CCN(c3ccccc3F)CC2)C1=O (centres undefined)
- MTC (Mus musculus [19]): 300 mg/kg
- Activity (Mus musculus [1]): inactive
- Activity (Mus musculus [2]): inactive
- minimal effective dose (Mus musculus [3]): 300 mg/kg
- minimal effective dose (Mus musculus [4]): 300 mg/kg
- Activity (Mus musculus [6]): Non-toxic

Compound: CCC1(CC)CC(=O)N(CC(=O)N2CCN(c3ccc(Cl)cc3)CC2)C1=O
- Activity (Mus musculus [20]): inactive
- Activity (Mus musculus [1]): inactive
- Activity (Mus musculus [2]): inactive
- minimal effective dose (Mus musculus [4]): 300 mg/kg
- Activity (Mus musculus [5]): Non-toxic
- Activity (Mus musculus [6]): Non-toxic

Compound: CC1(C)CC(=O)N(CC(=O)N2CCN(c3ccccc3F)CC2)C1=O
- Activity (Mus musculus [1]): inactive
- Activity (Mus musculus [2]): inactive
- minimal effective dose (Mus musculus [3]): 300 mg/kg
- Activity (Mus musculus [21]): inactive
- Activity (Mus musculus [5]): Non-toxic
- Activity (Mus musculus [6]): Non-toxic

Compound: CCC1(CC)CC(=O)N(CC(=O)N2CCN(c3ccccc3)CC2)C1=O
- Activity (Mus musculus [20]): inactive
- Activity (Mus musculus [1]): inactive
- Activity (Mus musculus [2]): inactive
- Activity (Mus musculus [21]): inactive
- Activity (Mus musculus [5]): Non-toxic
- Activity (Mus musculus [6]): Non-toxic

Compound: O=C1NC(=O)C(c2ccccc2)(c2ccccc2)N1 [PHENYTOIN]
- Activity (Rattus norvegicus [17]): 75%
- Activity (Rattus norvegicus [18]): 75%
- MTC (Mus musculus [19]): 100 mg/kg
- Activity (Mus musculus [1]): inactive
- Activity (Mus musculus [2]): inactive
- minimal effective dose (Mus musculus [3]): 30 mg/kg
- MTC (Mus musculus [10]): 100 mg/kg
- Activity (Rattus norvegicus [13]): 75%
- minimal effective dose (Mus musculus [4]): 30 mg/kg
- Activity (Rattus norvegicus [15]): 100%

Compound: O=C(CN1C(=O)CCC1=O)N1CCN(c2ccccc2Cl)CC1
- Activity (Mus musculus [7]): inactive
- Activity (Rattus norvegicus [17]): inactive
- Activity (Mus musculus [8]): inactive
- Activity (Rattus norvegicus [18]): inactive
- MTC (Mus musculus [19]): 300 mg/kg
- Activity (Mus musculus [2]): inactive
- Activity (Rattus norvegicus [9]): inactive
- minimal effective dose (Mus musculus [3]): 100 mg/kg
- minimal effective dose (Mus musculus [11]): 300 mg/kg
- Activity (Mus musculus [12]): inactive
- Activity (Rattus norvegicus [13]): inactive
- Activity (Mus musculus [21]): inactive
- Activity (Rattus norvegicus [15]): inactive
- Activity (Mus musculus [16]; route intraperitoneal): 75%
- Activity (Mus musculus [6]): Non-toxic

Compound: CC1CC(=O)N(CC(=O)N2CCN(c3ccccc3Cl)CC2)C1=O (centres undefined)
- Activity (Mus musculus [7]): inactive
- Activity (Rattus norvegicus [17]): inactive
- Activity (Rattus norvegicus [18]): inactive
- MTC (Mus musculus [19]): 300 mg/kg
- Activity (Mus musculus [2]): inactive
- Activity (Rattus norvegicus [9]): 75%
- minimal effective dose (Mus musculus [3]): 300 mg/kg
- minimal effective dose (Mus musculus [11]): 300 mg/kg
- Activity (Mus musculus [12]): inactive
- Activity (Rattus norvegicus [13]): inactive
- Activity (Mus musculus [21]): inactive
- Activity (Mus musculus [14]; route intraperitoneal): 100%
- Activity (Rattus norvegicus [15]): inactive
- Activity (Mus musculus [16]; route intraperitoneal): 100%
- Activity (Mus musculus [6]): Non-toxic

Compound: O=C(CN1C(=O)CCC1=O)N1CCN(c2ccccc2)CC1
- Activity (Mus musculus [1]): inactive
- Activity (Mus musculus [2]): inactive
- minimal effective dose (Mus musculus [3]): 300 mg/kg
- Activity (Mus musculus [21]): inactive
- Activity (Mus musculus [5]): Non-toxic
- Activity (Mus musculus [6]): Non-toxic
